Legend:
[1] = system: exon 11-like immunoreactivity (E11-LI); test: Immunohistochemical labeling (exon 11-like immunoreactivity) in striatum after antisense treatment; assay type: in vivo, mouse; details: 10 μg i.c.v. daily for 4 days, perfused on fifth day; p<0.05
exon 11-containing mRNA = test: RT-PCR of exon 11-containing mRNA in brains of mice given antisense i.c.v.; assay type: in vivo, mouse; details: 10 μg i.c.v. daily for 4 days, brain RNA on fifth day
MOR-1 gene = test: In vivo antisense mapping, radiant heat tailflick assay of opioid analgesia; design: species or system mice; details: 5 μg oligodeoxynucleotide on days 1, 3 and 5, tailflick on day 6

Question: How did the “downregulation of immunohistochemical labeling in the striatum compared to the control group” value [1] turn out when “antisense E11A: antisense oligodeoxynucleotide targeting exon 11: 5′GACAGTCACTGGTGCCTATGCAAT3′ (SEQ ID NO 48) (DNA, backbone not given here)” was run?
Answer: over 50%

Question: What about the “lowering of the levels of exon 11 expression (RT-PCR)” value (exon 11-containing mRNA) of the same substance?
Answer: approximately 40%

Question: Which “effect on spinal (i.t.) M6G analgesia” value (MOR-1 gene) does the source give for “exon 1 probe: antisense probe targeting exon 1: 5′CGCCCCAGCCTCTTCCTCT3′ (SEQ ID NO 47) (listed as DNA, chemistry not given here)” here?
Answer: inactive

Question: And the “effect on spinal (i.t.) morphine analgesia” value (MOR-1 gene)?
Answer: not spinally

Question: What about the “effect on supraspinal (i.c.v.) M6G analgesia” value (MOR-1 gene) of the same substance?
Answer: inactive

Question: And the “effect on supraspinal (i.c.v.) morphine analgesia” value (MOR-1 gene)?
Answer: reduced

Question: What does the source list for “mismatch E11A: mismatch probe based upon the 11a antisense probe: 5′GACGATCACGTGTGCTCATGACAT3′ (SEQ ID NO 50) (listed as DNA, chemistry not given here) [reference compound]”?
Answer: downregulation of immunohistochemical labeling in the striatum compared to the control group [1]: without effect; effect on opioid (morphine or M6G) analgesia, mismatch control (MOR-1 gene): inactivity; lowering of the levels of exon 11 expression (RT-PCR) (exon 11-containing mRNA): inactive
